# Measured values taken from patent US20050009840A1 (SUGEN, INC., priority 2003, published 2005).
# Molecular target: T1, Met kinase domain (GST fusion protein) (Homo sapiens, UniProt P08581)
# T1 construct: Purified GST fusion protein containing the Met kinase domain
# Test: Met transphosphorylation assay (ELISA, poly(glu-tyr) substrate);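 further: Cell-free ELISA with plate-bound poly(Glu:Tyr 4:1) phosphorylated by GST-fused Met kinase domain plus ATP and Mn2+, phosphotyrosine detected by anti-phosphotyrosine antibody with HRP and ABTS read-out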
# Type: biochemical
# Conditions: plain numbers in column Met IC50 (μM) of Table 2; read-out: Met IC50
# T1 sequence (P08581 1078-1345 limits assumed): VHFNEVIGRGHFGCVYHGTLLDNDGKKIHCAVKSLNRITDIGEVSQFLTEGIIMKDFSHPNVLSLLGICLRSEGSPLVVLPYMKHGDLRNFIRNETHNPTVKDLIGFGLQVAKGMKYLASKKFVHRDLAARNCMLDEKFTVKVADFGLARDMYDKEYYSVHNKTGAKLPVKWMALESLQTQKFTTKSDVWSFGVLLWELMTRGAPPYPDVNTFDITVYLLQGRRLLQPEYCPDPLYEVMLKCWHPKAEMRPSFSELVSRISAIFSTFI
row,Structure (SMILES),IC50
1,"CC(Oc1cc(-c2cccc(C(=O)N3CC[C@@H](N)C3)c2)cnc1N)c1c(Cl)cccc1Cl (stereo partly drawn) [Example I-398, (3-{6-Amino-5-[1-(2,6-dichloro-phenyl)-ethoxy]-pyridin-3-yl}-phenyl)-((R)-3-amino-pyrrolidin-1-yl)-methanone]",0.072 µM
2,"CC(Oc1cc(-c2ccc(C(=O)NCCN3CCOCC3)cc2)cnc1N)c1c(Cl)cccc1Cl (stereo not shown) [Example I-401, 4-{6-Amino-5-[1-(2,6-dichloro-phenyl)-ethoxy]-pyridin-3-yl}-N-(2-morpholin-4-yl-ethyl)-benzamide]",0.073 µM
3,"CC(Oc1cc(-c2ccc(C(=O)NC3CCN(C)CC3)cc2)cnc1N)c1c(Cl)cccc1Cl (stereo not shown) [Example I-403, 4-{6-Amino-5-[1-(2,6-dichloro-phenyl)-ethoxy]-pyridin-3-yl}-N-(1-methyl-piperidin-4-yl)-benzamide]",0.062 µM
4,"CC(Oc1cc(-c2ccc(C(=O)N3C[C@@H](C)N[C@@H](C)C3)cc2)cnc1N)c1c(Cl)cccc1Cl (stereo partly drawn) [Example I-404, (4-{6-Amino-5-[1-(2,6-dichloro-phenyl)-ethoxy]-pyridin-3-yl}-phenyl)-((3R,5S)-3,5-dimethyl-piperazin-1-yl)-methanone]",0.052 µM
5,"CC(=O)N1CCN(CCNC(=O)c2ccc(-c3cnc(N)c(OC(C)c4c(Cl)cccc4Cl)c3)cc2)CC1 (stereo not shown) [Example I-405, N-[2-(4-Acetyl-piperazin-1-yl)-ethyl]-4-{6-amino-5-[1-(2,6-dichloro-phenyl)-ethoxy]-pyridin-3-yl}-benzamide]",0.062 µM
6,"CC(Oc1cc(-c2ccc(C(=O)NCCCN3CCCC3)cc2)cnc1N)c1c(Cl)cccc1Cl (stereo not shown) [Example I-406, 4-{6-Amino-5-[1-(2,6-dichloro-phenyl)-ethoxy]-pyridin-3-yl}-N-(3-pyrrolidin-1-yl-propyl)-benzamide]",0.061 µM
7,"CC(Oc1cc(-c2ccc(C(=O)N3CC[C@H](N)C3)cc2)cnc1N)c1c(Cl)cccc1Cl (stereo partly drawn) [Example I-407, (4-{6-Amino-5-[1-(2,6-dichloro-phenyl)-ethoxy]-pyridin-3-yl}-phenyl)-((S)-3-aminopyrrolidin-1-yl)-methanone]",0.05 µM
8,"CC(Oc1cc(-c2ccc(C(=O)N3CC[C@@H](N)C3)cc2)cnc1N)c1c(Cl)cccc1Cl (stereo partly drawn) [Example I-408, (4-{6-Amino-5-[1-(2,6-dichloro-phenyl)-ethoxy]-pyridin-3-yl}-phenyl)-((R)-3-amino-pyrrolidin-1-yl)-methanone]",0.049 µM
9,"CC(Oc1cc(-c2ccc(C(=O)N3CCC(N4CCCC4)CC3)cc2)cnc1N)c1c(Cl)cccc1Cl (stereo not shown) [Example I-410, (4-{6-Amino-5-[1-(2,6-dichloro-phenyl)-ethoxy]-pyridin-3-yl}-phenyl)-(4-pyrrolidin-1-yl-piperidin-1-yl)-methanone]",0.055 µM
10,"CC(Oc1cc(-c2ccc(C(=O)N3CCN(C)CC3)cc2)cnc1N)c1c(Cl)cccc1Cl (stereo not shown) [Example I-411, (4-{6-Amino-5-[1-(2,6-dichloro-phenyl)-ethoxy]-pyridin-3-yl}-phenyl)-(4-methyl-piperazin-1-yl)-methanone]",0.053 µM
11,"CC(Oc1cc(C#CCNC(=O)N2CCC[C@H]2CN2CCCC2)cnc1N)c1c(Cl)ccc(F)c1Cl (stereo partly drawn) [Example I-412, (S)-2-Pyrrolidin-1-ylmethyl-pyrrolidine-1-carboxylic acid (3-{6-amino-5-[1-(2,6-dichloro-3-fluoro-phenyl)-ethoxy]-pyridin-3-yl}-prop-2-ynyl)-amide]",0.067 µM
12,"CC(Oc1cc(C#CCNC(=O)N2CCN(C)CC2)cnc1N)c1c(Cl)ccc(F)c1Cl (stereo not shown) [Example I-413, 4-Methyl-piperazine-1-carboxylic acid (3-{6-amino-5-[1-(2,6-dichloro-3-fluoro-phenyl)-ethoxy]-pyridin-3-yl}-prop-2-ynyl)-amide]",0.056 µM
13,"CC(Oc1cc(C#CCNC(=O)N2CCC(N3CCCC3)CC2)cnc1N)c1c(Cl)ccc(F)c1Cl (stereo not shown) [Example I-414, 4-Pyrrolidin-1-yl-piperidine-1-carboxylic acid (3-{6-amino-5-[1-(2,6-dichloro-3-fluoro-phenyl)-ethoxy]-pyridin-3-yl}-prop-2-ynyl)-amide]",0.058 µM
14,"CC(Oc1cc(C#CCNC(=O)N2C[C@@H](C)N[C@@H](C)C2)cnc1N)c1c(Cl)ccc(F)c1Cl (stereo partly drawn) [Example I-415, (3R,5S)-3,5-Dimethyl-piperazine-1-carboxylic acid (3-{6-amino-5-[1-(2,6-dichloro-3-fluoro-phenyl)-ethoxy]-pyridin-3-yl}-prop-2-ynyl)-amide]",0.063 µM
15,"CC(Oc1cc(C#CCNC(=O)NC2CCN(C)CC2)cnc1N)c1c(Cl)ccc(F)c1Cl (stereo not shown) [Example I-416, 1-(3-{6-Amino-5-[1-(2,6-dichloro-3-fluoro-phenyl)-ethoxy]-pyridin-3-yl}-prop-2-ynyl)-3-(1-methyl-piperidin-4-yl)-urea]",0.051 µM
16,"CC(Oc1cc(C#CCNC(=O)NCCCN2CCCC2)cnc1N)c1c(Cl)ccc(F)c1Cl (stereo not shown) [Example I-417, 1-(3-{6-Amino-5-[1-(2,6-dichloro-3-fluoro-phenyl)-ethoxy]-pyridin-3-yl}-prop-2-ynyl)-3-(3-pyrrolidin-1-yl-propyl)-urea]",0.062 µM
17,"CC(Oc1cc(C#CCNC(=O)NCCN2CCCC2)cnc1N)c1c(Cl)ccc(F)c1Cl (stereo not shown) [Example I-418, 1-(3-{6-Amino-5-[1-(2,6-dichloro-3-fluoro-phenyl)-ethoxy]-pyridin-3-yl}-prop-2-ynyl)-3-(2-pyrrolidin-1-yl-ethyl)-urea]",0.052 µM
18,CC(Oc1cc(C#CCNC(=O)NCCN2CCOCC2)cnc1N)c1c(Cl)ccc(F)c1Cl (stereo not shown) [Example I-419],0.055 µM
19,"CC(Oc1cc(C#CCNC(=O)NCCCN2CCOCC2)cnc1N)c1c(Cl)ccc(F)c1Cl (stereo not shown) [Example I-420, 1-(3-{6-Amino-5-[1-(2,6-dichloro-3-fluoro-phenyl)-ethoxy]-pyridin-3-yl}-prop-2-ynyl)-3-(3-morpholin-4-yl-propyl)-urea]",0.064 µM

row,Structure (SMILES),IC50
1,CC(Oc1cc(C#CCNC(=O)N2CCC[C@@H]2CN2CCCC2)cnc1N)c1c(Cl)ccc(F)c1Cl (stereo partly shown) [Example I-421],0.071 µM
2,"CC(Oc1cc(C#CCN(C)C)cnc1N)c1c(Cl)ccc(F)c1Cl (stereo not shown) [Example I-422, 3-[1-(2,6-Dichloro-3-fluoro-phenyl)-ethoxy]-5-(3-dimethylamino-prop-1-ynyl)-pyridin-2-ylamine]",0.071 µM
3,"CC(Oc1cc(C#CCNC(N)=O)cnc1N)c1c(Cl)ccc(F)c1Cl (stereo not shown) [Example I-423, (3-{6-Amino-5-[1-(2,6-dichloro-3-fluoro-phenyl)-pnlethoxy]-pyridin-3-yl}-prop-2-ynyl)-area]",0.062 µM
4,"CC(Oc1cc(C#CCNC(=O)CN2CCCCC2)cnc1N)c1c(Cl)ccc(F)c1Cl (stereo not shown) [Example I-424, N-(3-{6-Amino-5-[1-(2,6-dichloro-3-fluoro-phenyl)-ethoxy]-pyridin-3-yl}-prop-2-ynyl)-2-piperidin-1- -yl-acetamide]",0.016 µM
5,"CC(Oc1cc(C#CCNC(=O)CN2CCOCC2)cnc1N)c1c(Cl)ccc(F)c1Cl (stereo not shown) [Example I-425, N-(3-{6-Amino-5-[1-(2,6-dichloro-3-fluoro-phenyl)-ethoxy]-pyridin-3-yl}-prop-2-ynyl)-2-morpholin-4-yl-acetamide]",0.027 µM
6,"CC(Oc1cc(C#CCNC(=O)CN2CCCC2)cnc1N)c1c(Cl)ccc(F)c1Cl (stereo not shown) [Example I-426, N-(3-{8-Amino-5-[1-(2,6-dichloro-3-fluoro-phenyl)-ethoxy]-pyridin-3-yl}-prop-2-ynyl)-2-pyrrolidin-1-yl-acetamide]",0.0091 µM
7,"CC(Oc1cc(C#CCNC(=O)CN2CC[C@@H](O)C2)cnc1N)c1c(Cl)ccc(F)c1Cl (stereo partly drawn) [Example I-427, N-(3-{6-Amino-5-[1-(2,6-dichloro-3-fluoro-phenyl)-ethoxy]-pyridin-3-yl}-prop-2-ynyl)-2-((R)-3-hydroxy-pyrrolidin-1-yl)-acetamide]",0.011 µM
8,"CC(Oc1cc(C#CCNC(=O)CN2CCC(O)CC2)cnc1N)c1c(Cl)ccc(F)c1Cl (stereo not shown) [Example I-428, N-(3-{6-Amino-5-[1-(2,6-dichloro-3-fluoro-phenyl)-ethoxy]-pyridin-3-yl}-prop-2-ynyl)-2-(4-hydroxy-piperidin-1-yl)-acetamide]",0.012 µM
9,"CC(Oc1cc(C#CCNC(=O)CN(C)C)cnc1N)c1c(Cl)ccc(F)c1Cl (stereo not shown) [Example I-429, N-(3-{6-Amino-5-[1-(2,6-dichloro-3-fluoro-phenyl)-ethoxy]-pyridin-3-yl}-prop-2-ynyl)-2-dimethylamino-acetamide]",0.022 µM
10,"CCN(CC)CC(=O)NCC#Cc1cnc(N)c(OC(C)c2c(Cl)ccc(F)c2Cl)c1 (stereo not shown) [Example I-430, N-(3-{6-Amino-5-[1-(2,6-dichloro-3-fluoro-phenyl)-ethoxy]-pyridin-3-yl}-prop-2-ynyl)-2-diethylamino-acetamide]",0.013 µM
11,"CC(=O)N1CCN(CC(=O)NCC#Cc2cnc(N)c(OC(C)c3c(Cl)ccc(F)c3Cl)c2)CC1 (stereo not shown) [Example I-431, 2-(4-Acetyl-piperazin-1-yl)-N-(3-{6-amino-5-[1-(2,6-dichloro-3-fluoro-phenyl)-ethoxy]pyridin-3-yl}-prop-2-ynyl)-acetamide]",0.027 µM
12,"Nc1ncc(-c2ccccn2)cc1OCc1ccccc1 [Example I-488, 5′-Benzyloxy-[2,3′]bipyridinyl-6′-ylamine]",> 20 µM
13,"Nc1ncc(-c2cncnc2)cc1OCc1ccccc1 [Example I-490, 3-Benzyloxy-5-pyrimidin-5-yl-pyridin-2-ylamine]",> 20 µM
14,"Nc1ccc(-c2cnc(N)c(OCc3ccccc3)c2)cn1 [Example I-491, 5-Benzyloxy-[3,3′]bipyridinyl-6,6′-diamine]",> 20 µM
15,"Nc1ncc(-c2ccccn2)cc1OCc1ccccc1Cl [Example I-492, 5′-(2-Chloro-benzyloxy)-[2,3′]bipyridinyl-6′-ylamine]",8.24 µM
16,Nc1ncc(-c2cccnc2)cc1OCc1ccccc1Cl [Example I-493],4.6 µM
17,"Nc1ncc(-c2cncnc2)cc1OCc1ccccc1Cl [Example I-494, 3-(2-Chloro-benzyloxy)-5-pyrimidin-5-yl-pyridin-2-ylamine]",19.3 µM
18,"Nc1ccc(-c2cnc(N)c(OCc3ccccc3Cl)c2)cn1 [Example I-495, 5-(2-Chloro-benzyloxy)-[3,3′]bipyridinyl-6,6′-diamine]",4.31 µM
